{"source": "PubChem BioAssay (NCI)", "assay_in_all_cases": "growth of human tumour cells (NCI), 384-well format", "key": {"MDA-MB-435 melanoma": {"system": "MDA-MB-435 melanoma"}, "BT-549 breast": {"system": "BT-549 breast"}, "OVCAR-8 ovarian": {"system": "OVCAR-8 ovarian"}, "UACC-257 melanoma": {"system": "UACC-257 melanoma"}, "NCI-H522 lung": {"system": "NCI-H522 lung"}, "RPMI-8226 leukemia": {"system": "RPMI-8226 leukemia"}, "SF-295 CNS": {"system": "SF-295 CNS"}, "NCI-H23 lung": {"system": "NCI-H23 lung"}, "UO-31 renal": {"system": "UO-31 renal"}, "MOLT-4 leukemia": {"system": "MOLT-4 leukemia"}, "HCC-2998 colon": {"system": "HCC-2998 colon"}, "HL-60(TB) leukemia": {"system": "HL-60(TB) leukemia"}, "NCI-H460 NSCLC": {"system": "NCI-H460 NSCLC"}, "HCT-15 colon": {"system": "HCT-15 colon"}, "NCI-H226 lung": {"system": "NCI-H226 lung"}, "RXF 393 renal": {"system": "RXF 393 renal"}, "NCI/ADR-RES ovarian": {"system": "NCI/ADR-RES ovarian"}, "UACC-62 melanoma": {"system": "UACC-62 melanoma"}, "SK-MEL-28 melanoma": {"system": "SK-MEL-28 melanoma"}, "A498 renal": {"system": "A498 renal"}, "KM12 colon": {"system": "KM12 colon"}, "HCT-116 colon": {"system": "HCT-116 colon"}, "786-0 renal": {"system": "786-0 renal"}, "MDA-MB-468 breast": {"system": "MDA-MB-468 breast"}, "SF-268 CNS": {"system": "SF-268 CNS"}, "SW-620 colon": {"system": "SW-620 colon"}, "T-47D breast": {"system": "T-47D breast"}, "SK-OV-3 ovarian": {"system": "SK-OV-3 ovarian"}, "PC-3 prostate": {"system": "PC-3 prostate"}}, "note": "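Abbreviation: GI50, concentration required for 50% inhibition of growth. TGI marks complete inhibition of growth.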", "data": [{"compound": "COc1ccc(-c2c(-c3ccc(C#N)c(F)c3)nc(N3CCC(N)CC3)n(C)c2=O)cc1F", "values": [{"measurement": "GI50", "setting": "MDA-MB-435 melanoma", "value": 13.5, "unit": "µM"}, {"measurement": "TGI", "setting": "MDA-MB-435 melanoma", "value": 26.4, "unit": "µM"}, {"measurement": "GI50", "setting": "BT-549 breast", "value": 11.6, "unit": "µM"}, {"measurement": "TGI", "setting": "BT-549 breast", "value": 23.9, "unit": "µM"}, {"measurement": "GI50", "setting": "OVCAR-8 ovarian", "value": 14.5, "unit": "µM"}, {"measurement": "TGI", "setting": "OVCAR-8 ovarian", "value": 27.6, "unit": "µM"}, {"measurement": "GI50", "setting": "UACC-257 melanoma", "value": 1.71, "unit": "µM"}, {"measurement": "TGI", "setting": "UACC-257 melanoma", "value": 3.16, "unit": "µM"}, {"measurement": "GI50", "setting": "NCI-H522 lung", "value": 11.7, "unit": "µM"}, {"measurement": "TGI", "setting": "NCI-H522 lung", "value": 24, "unit": "µM"}, {"measurement": "GI50", "setting": "RPMI-8226 leukemia", "value": 7.53, "unit": "µM"}, {"measurement": "TGI", "setting": "RPMI-8226 leukemia", "value": 19.6, "unit": "µM"}, {"measurement": "GI50", "setting": "SF-295 CNS", "value": 16.8, "unit": "µM"}, {"measurement": "TGI", "setting": "SF-295 CNS", "value": 30.4, "unit": "µM"}, {"measurement": "GI50", "setting": "NCI-H23 lung", "value": 11.2, "unit": "µM"}, {"measurement": "TGI", "setting": "NCI-H23 lung", "value": 28.6, "unit": "µM"}, {"measurement": "GI50", "setting": "UO-31 renal", "value": 13.3, "unit": "µM"}, {"measurement": "TGI", "setting": "UO-31 renal", "value": 26.1, "unit": "µM"}, {"measurement": "GI50", "setting": "MOLT-4 leukemia", "value": 1.78, "unit": "µM"}, {"measurement": "TGI", "setting": "MOLT-4 leukemia", "value": 3.17, "unit": "µM"}, {"measurement": "GI50", "setting": "HCC-2998 colon", "value": 11, "unit": "µM"}, {"measurement": "TGI", "setting": "HCC-2998 colon", "value": 23, "unit": "µM"}, {"measurement": "GI50", "setting": "HL-60(TB) leukemia", "value": 3.89, "unit": "µM"}, {"measurement": "TGI", "setting": "HL-60(TB) leukemia", "value": 15.1, "unit": "µM"}, {"measurement": "GI50", "setting": "NCI-H460 NSCLC", "value": 3.41, "unit": "µM"}, {"measurement": "TGI", "setting": "NCI-H460 NSCLC", "value": 10.9, "unit": "µM"}, {"measurement": "GI50", "setting": "HCT-15 colon", "value": 15.7, "unit": "µM"}, {"measurement": "TGI", "setting": "HCT-15 colon", "value": 29.3, "unit": "µM"}, {"measurement": "GI50", "setting": "NCI-H226 lung", "value": 1.75, "unit": "µM"}, {"measurement": "TGI", "setting": "NCI-H226 lung", "value": 3.27, "unit": "µM"}, {"measurement": "GI50", "setting": "RXF 393 renal", "value": 2.69, "unit": "µM"}, {"measurement": "TGI", "setting": "RXF 393 renal", "value": 9.41, "unit": "µM"}, {"measurement": "GI50", "setting": "NCI/ADR-RES ovarian", "value": 16.5, "unit": "µM"}, {"measurement": "TGI", "setting": "NCI/ADR-RES ovarian", "value": 30.3, "unit": "µM"}, {"measurement": "GI50", "setting": "UACC-62 melanoma", "value": 2.18, "unit": "µM"}, {"measurement": "TGI", "setting": "UACC-62 melanoma", "value": 5.43, "unit": "µM"}, {"measurement": "GI50", "setting": "SK-MEL-28 melanoma", "value": 10.7, "unit": "µM"}, {"measurement": "TGI", "setting": "SK-MEL-28 melanoma", "value": 22.6, "unit": "µM"}, {"measurement": "GI50", "setting": "A498 renal", "value": 2.29, "unit": "µM"}, {"measurement": "TGI", "setting": "A498 renal", "value": 7.42, "unit": "µM"}, {"measurement": "GI50", "setting": "KM12 colon", "value": 13.1, "unit": "µM"}, {"measurement": "TGI", "setting": "KM12 colon", "value": 25.9, "unit": "µM"}, {"measurement": "GI50", "setting": "HCT-116 colon", "value": 6.86, "unit": "µM"}, {"measurement": "TGI", "setting": "HCT-116 colon", "value": 19.8, "unit": "µM"}, {"measurement": "GI50", "setting": "786-0 renal", "value": 10.6, "unit": "µM"}, {"measurement": "TGI", "setting": "786-0 renal", "value": 22.5, "unit": "µM"}, {"measurement": "GI50", "setting": "MDA-MB-468 breast", "value": 9.92, "unit": "µM"}, {"measurement": "TGI", "setting": "MDA-MB-468 breast", "value": 21.5, "unit": "µM"}, {"measurement": "GI50", "setting": "SF-268 CNS", "value": 14.1, "unit": "µM"}, {"measurement": "TGI", "setting": "SF-268 CNS", "value": 27.1, "unit": "µM"}, {"measurement": "GI50", "setting": "SW-620 colon", "value": 15.3, "unit": "µM"}, {"measurement": "TGI", "setting": "SW-620 colon", "value": 28.7, "unit": "µM"}, {"measurement": "GI50", "setting": "T-47D breast", "value": 10.4, "unit": "µM"}, {"measurement": "TGI", "setting": "T-47D breast", "value": 22.1, "unit": "µM"}, {"measurement": "GI50", "setting": "SK-OV-3 ovarian", "value": 12, "unit": "µM"}, {"measurement": "TGI", "setting": "SK-OV-3 ovarian", "value": 24.4, "unit": "µM"}, {"measurement": "GI50", "setting": "PC-3 prostate", "value": 13.8, "unit": "µM"}]}]}
